According to patent US7910622B2, “Modulation of bacterial quorum sensing with synthetic ligands” (Wisconsin Alumni Research Foundation, priority 2007, dated 2011):
Like-named read-outs stand apart in the source and are kept apart here.

How the values were obtained:
Assay in all cases: cell-based
LasR = target: T1, LasR (Pseudomonas aeruginosa, UniProt P25084); type: cell-based; conditions: for E. coli-LasR Inhibition [%]: 5 μM synthetic ligand against 7.5 nM OdDHL; for E. coli-LasR Inhibition [%] / inhibition at 5 µM: E. coli DH5α (pJN105L pSC11), normalized to OdDHL; for inhibition at 5 µM: read-out: E. coli-LasR Inhibition [%], 5 μM synthetic ligand against 7.5 nM OdDHL
T1 construct: expressed in transfected cells; host or cells: E. coli DH5α (pJN105L pSC11), arabinose-induced
T1 sequence (P25084 whole entry): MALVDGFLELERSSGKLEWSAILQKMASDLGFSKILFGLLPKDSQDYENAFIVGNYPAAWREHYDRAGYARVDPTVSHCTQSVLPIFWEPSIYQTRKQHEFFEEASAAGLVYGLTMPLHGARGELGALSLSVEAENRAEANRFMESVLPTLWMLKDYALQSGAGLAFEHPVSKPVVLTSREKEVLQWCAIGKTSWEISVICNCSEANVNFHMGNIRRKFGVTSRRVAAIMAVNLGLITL
How it was run: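 E. coli DH5α carrying pJN105L/pSC11 grown to OD600 0.3, LasR expression induced with arabinose (4 mg/mL), then incubated with AHLs at 37 °C to OD600 0.45. LasR activity read by β-galactosidase reporter assay; IC50/EC50 from sigmoidal dose-response fits.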

LuxR [1] = target: T2, LuxR (Aliivibrio fischeri, UniProt P35327); type: cell-based, Vibrio fischeri; conditions: for V. fischeri-LuxR Inhibition [%]: 5 μM synthetic ligand against 5 μM OHHL; for V. fischeri-LuxR Inhibition [%] / inhibition at 5 µM: V. fischeri ES114 (Δ-luxI), normalized to OHHL; for IC50: LuxR IC50, determined against 5 μM OHHL; for inhibition at 5 µM: read-out: V. fischeri-LuxR Inhibition [%], 5 μM synthetic ligand against 5 μM OHHL
T2 construct: a Δ-luxI derivative of V. fischeri ES114, in which the native lux operon behaves as the bioluminescent reporter; endogenous in cells; host or cells: V. fischeri ES114 (Δ-luxI)
T2 sequence (P35327 whole entry): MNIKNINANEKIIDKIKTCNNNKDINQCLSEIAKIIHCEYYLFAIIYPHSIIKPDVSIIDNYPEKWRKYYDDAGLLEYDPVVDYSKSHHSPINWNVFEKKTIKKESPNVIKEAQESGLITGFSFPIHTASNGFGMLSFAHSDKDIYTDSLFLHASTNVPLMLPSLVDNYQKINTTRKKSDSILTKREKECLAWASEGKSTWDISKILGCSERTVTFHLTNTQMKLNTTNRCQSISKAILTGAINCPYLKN
How it was run: (§1)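 Whole-cell luminescence reporter in V. fischeri ES114 (WT, Δ-luxI or Δ-luxR) or E. coli, overnight cultures diluted 1:10 and grown with compound at RT (E. coli 30° C) to OD600 0.35-0.4 (4-6 h). Luminescence normalized to cell density, triplicates; EC50/IC50 from sigmoidal fit.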

LuxR [2] = target: T2, LuxR; design: species or system Vibrio fischeri; conditions: for activation at 200 µM: read-out: V. fischeri-LuxR Activation [%], 200 μM ligand; for activation at 200 µM / V. fischeri-LuxR Activation [%]: normalized to OHHL; for V. fischeri-LuxR Activation [%]: 200 μM ligand
How it was run: as §1

[3] = determined against 7.5 nM OdDHL, read-out: LasR IC50

Molecule: O=C(Cc1ccc(Br)cc1)N[C@H]1CCOC1=O [A17, 4-bromo-phenylacetanoyl HL, reference compound]
- IC50 (LasR): 3890 nM
- E. coli-LasR Inhibition [%] (LasR): 28%
- V. fischeri-LuxR Inhibition [%] (LuxR [1]): 79%
- activation at 200 µM (LuxR [2]; V. fischeri ES114 (Δ-luxI)): 3%

Molecule: O=C(CCCc1c[nH]c2ccccc12)N[C@H]1CCOC1=O [A18, indole AHL, reference compound]
- E. coli-LasR Inhibition [%] (LasR): 36%
- IC50 (LasR; [3]): 8380 nM
- V. fischeri-LuxR Inhibition [%] (LuxR [1]): 72%
- V. fischeri-LuxR Activation [%] (LuxR [2]; V. fischeri ES114 (Δ-luxI)): 3%

Molecule: O=C(Cc1ccc(Br)cc1)N[C@H]1CCOC1=O [compound 8, N-(4-bromo-phenylacetanoyl)-L-homoserine lactone, reference compound]
- inhibition at 5 µM (LasR): ~25%
- IC50 (LasR; read-out: LasR IC50, determined against 7.5 nM OdDHL): 3890 nM
- IC50 (LuxR [1]): 3700 nM
- inhibition at 5 µM (LuxR [1]): ~76%
- V. fischeri-LuxR Activation [%] (LuxR [2]; V. fischeri ES114 (Δ-luxI)): 3%

Molecule: O=C(Cc1ccc(-c2ccccc2)cc1)NC1CCOC1=O (stereo not drawn) [B21, 4-phenyl PHL]
- inhibition at 5 µM (LasR): 20%
- IC50 (LuxR [1]): 1060 nM
- inhibition at 5 µM (LuxR [1]): ~70%
- activation at 200 µM (LuxR [2]; V. fischeri ES114 (Δ-luxI)): 7%

Molecule: 3-nitro PHL [B17]
- LasR: concentration at which the compound elicits its maximal inhibition (value in parentheses) (LasR; against 7.5 nM OdDHL, dose response curve did not reach 100% inhibition): 2.0 µM
- IC50 (LasR; [3]): 610 nM
- V. fischeri-LuxR Inhibition [%] (LuxR [1]): −15%
- EC50 (LuxR [2]; V. fischeri ES114 (Δ-luxI), read-out: LuxR EC50): 350 nM
- luminescence induced higher than native ligand OHHL (LuxR [2]; primary agonism assay, 200 μM, same concentration as OHHL): 29%

Molecule: O=C(Cc1ccc(-c2ccccc2)cc1)N[C@H]1CCOC1=O [C18, 4-phenyl PHL]
- inhibition at 5 µM (LasR): 20%
- IC50 (LuxR [1]): 1060 nM
- Inhibition (%) (LuxR [1]; V. fischeri-LuxR, Library C primary antagonism screen): 79%
- Activation (%) (LuxR [2]; V. fischeri-LuxR, Library C primary agonism screen): 7%
- activation at 200 µM (LuxR [2]; V. fischeri ES114 (Δ-luxI)): 7%
